Measurements published in US20140371069A1, “Short-Chain Alkyl Sulfonates in Pesticide Formulations and Applications” (priority 2011, published 2014).
Read-outs that look alike come from different tables or passages of the source.

Experiments:
[1] = Stability of pesticide formulation containing glufosinate-ammonium and C8 ether sulfate at 1:1 weight ratio with test hydrotrope
Description: Specifically, the pesticide active in the pesticide formulation is glufosinate-ammonium and the adjuvant is C8 ether sulfate.

[2] = Separation of the formulations after one freeze/thaw cycle (ternary diagram); format: physicochemical; details: FIG. 2 versus FIG. 4
Method: The formulations listed in Example 1 were subjected to a freeze/thaw cycle in which the formulations were frozen and thawed to room temperature. The stability of the formulations was then assessed. FIG. 2 illustrates the results of the assessment. FIG. 2 is a ternary diagram showing regions of varying percentages of separation after one freeze/thaw cycle of the formulations.
A freeze/thaw cycle changes the solubility of some of the components, therefore, by subjecting the formulations to a freeze/thaw cycle, the effect of the solubility change on the stability of the formulations can be assessed.
The formulations listed in Comparative Example 1 were subjected to a freeze/thaw cycle and the stability of the formulations was subsequently assessed. FIG. 4 illustrates the results of the assessment. FIG. 4 is a ternary diagram showing regions of varying percentages of separation after one freeze/thaw cycle of the formulations.

[3] = Separation of the formulations on standing at room temperature (ternary diagram); format: physicochemical; details: for region of stability (blue region) in ternary diagram of percentage of separation: glufosinate ammonium 25.8%, C8 ether sulfate 30.6%, hydrotrope 0-10%, propylene glycol 0-15% w/w
Method: A design experiment was performed in which pesticide formulations containing the following were prepared: [table] The formulations were allowed to sit for 24 hours at room temperature and the stability of the formulations was assessed. FIG. 1 illustrates the results of the experiment. FIG. 1 is a ternary diagram showing regions of varying percentages of separation after 24 hours at room temperature of the formulations containing the above-listed components. The numbers associated with the small colored bar in the upper left hand corner of the figure indicate the percentage of separation in the samples. The colors in the bar correspond to the colored regions in the ternary diagram. […] An experiment was performed in which pesticide formulations containing the following were prepared: [table] The formulations were allowed to sit for two hours at room temperature and the stability of the formulations was assessed. FIG. 3 illustrates the results of the experiment. FIG. 3 is a ternary diagram showing regions of varying percentages of separation after two hours at room temperature of the formulations containing the above-listed components.

[4] = glufosinate-ammonium and C8 ether sulfate at 1:1 weight ratio
[5] = after 24 hours at room temperature, FIG. 1

Row | Molecule | stability of the pesticide formulation containing the material as hydrotrope [1, 4] | stability of the pesticide formulation containing the material as hydrotrope [1] | other results
1 | CC(C)c1ccc(S(=O)(=O)[O-])cc1.[Na+] [sodium cumene sulfonate] | developed two phases that separated very quickly | – | –
2 | CCCCCCCCS(=O)(=O)[O-].[Na+] [sodium octane sulfonate] | – | – | effectiveness as a hydrotrope compared with sodium xylene sulfonate [2]: more effective as a hydrotrope than sodium xylene sulfonate; effectiveness as a hydrotrope in the formulations [3, 5]: effective as a hydrotrope; region of stability (blue region) in ternary diagram of percentage of separation [3, 5]: large; effectiveness as a hydrotrope compared with sodium xylene sulfonate ([3]; room temperature, FIG. 1 (24 hours) versus FIG. 3 (two hours)): significantly more effective as a hydrotrope than sodium xylene sulfonate
3 | C4 alcohol+2EO sulfate ester sodium salt | – | developed two phases that separated very quickly | –
4 | CC(O)CO (stereo not drawn) [propylene glycol] | developed two phases that separated very quickly | – | –
5 | C4 alcohol+4EO sulfate esters sodium salt | – | developed two phases that separated very quickly | –
6 | sodium xylene sulfonate | developed two phases that separated very quickly | – | region of stability (blue region) in ternary diagram of percentage of separation ([3]; after two hours at room temperature, FIG. 3): small
7 | COC(C)COC(C)CO (stereo not drawn) [dipropylene glycol monomethyl ether] | – | developed two phases that separated very quickly | –
8 | C6 alcohol+4EO sodium salt | – | developed two phases that separated very quickly | –
